One data set can be described thus: physchem. The following applies: 25 °C. The protocol:
3-(3-(4-(Pyridin-2-yloxymethyl)-benzyl)-isoxazol-5-yl)-pyridin-2-ylamine described in Reference Example 1, which is the parent compound, and the compound of Example 1 were compared for solubility in a Britton-Robinson buffer (ionic strength: 0.3) at 25° C.

For data set [1], the system named is C. albicans E81022 strain. Put plainly: Experimental systemic candidal infection model in mice. Format: in vivo. The following applies: for Mean Survival Days: tail vein at 0.5 and 9 hours after infection, observed until 14 days. The protocol:
(1) Preparation of Fungal Inoculant
A standing culture of C. albicans E81022 strain was carried out for 24 hours at 35° C. in sabouraud dextrose agar medium (Difco), and the recovered fungal cells were suspended in sterile physiological saline (Otsuka Pharmaceutical). By counting the fungal number on cytometry plate, the suspension was diluted to 2×10^7 cells/mL with sterilized physiological saline to serve fungal inoculum.
The fungal inoculum was used in an amount of 0.2 mL to inoculate the mice in the tail vein (4×10^6 cells/mouse).
(3) Preparation of Agent Solution, and Treatment
The compound of Example 1 was dissolved in concentrations of 13 mg/mL and 3.25 mg/mL with a 50 mM glycine buffer with a pH of 10 (Wako Pure Chemicals), these solutions were then diluted 10 times with 5% glucose (Otsuka Pharmaceutical). At 0.5 and 9 hours after infection, 0.2 mL of the agent solution was administered into a tail vein of the mice. The agent concentrations were 2.5 and 10 mg/kg (calculated as the active form). The number of animals in one group was 5 animals.
The protective effect was determined by observing life/death until 14 days after infection and calculating the mean survival days. The protective effect on the systemic candidal infection was measured for the compound of Example 1 by the method described in section 2.

A short description of data set [2]: In vitro activity compared with the parent compound. Particulars: ratio to parent compound.
The nature of data set [3]: Pharmacokinetic evaluation in mice. The class given is in vivo, ICR mice. Particulars: tail vein, 3 mg/kg, FIG. 15. The protocol: (§1) (1) Preparation of Administration Solution
(§2) (2) Administration, and Sampling of Blood and Plasma
Using five-week-old female ICR mice (Charles River Japan), with the number of mouse in one group being 2 mice, the compound according to the present invention and an active form thereof were administered into the tail vein in a dose of 3 mg/kg. The tail vein was punctured 0.25, 0.5, 1.5, 3, 5, and 8 hours after administration, and blood was collected with a heparin-treated pipette.
(§3) (3) Plasma Concentration Measurement Method

For data set [4] the following is noted: in vivo, 0.4 mg/kg. The protocol:
as §1, §2
Blood was collected from the radial cutaneous vein 0.25, 0.5, 1, 2, 4, and 6 hours after administration using a heparin-treated syringe. The blood samples were put into sampling tubes and stored under ice cooling, they were then centrifuged for 5 minutes at 10,500×g and at 4° C. The plasma thus obtained was accurately divided into 5 μL amounts and stored at −20° C. until they were analyzed.
as §3
Imipramine hydrochloride (Sigma) was dissolved in a mixed solution of acetonitrile and methanol (1:1) so that the concentration would be 0.5 μmol/L, to prepare an internal standard substance solution (IS solution). The plasma was melted, 200 μL of IS solution was then added thereto and mixed, and this was centrifuged (deproteinated) for 10 minutes at 1500×g and at 4° C., the supernatant was then analyzed by LC-MS (Waters).

≈ marks a conversion by molar mass, not a printed value. Read-outs that look alike come from different tables or passages of the source.

Take `Nc1c(-c2cc(Cc3ccc(COc4ccccn4)cc3)no2)ccc[n+]1COP(=O)([O-])O` [Example 1, 2-Amino-1-((phosphonoxy)methyl)-3-(3-((4-((2-pyridinyloxy)methyl)phenyl)methyl)-5-isoxazolyl)-pyridinium]: the solubility in “physchem” (pH 5, aqueous buffer) is 1900 µg/mL (≈ 4.06 mM); in the data set “physchem” (pH 7, aqueous buffer) it was 10500 µg/mL (≈ 22.4 mM); in the data set “physchem” (pH 8, aqueous buffer) it was 16400 µg/mL (≈ 35 mM); in “physchem” (pH 9, aqueous buffer), more than 21100 µg/mL. Further, the “Mean Survival Days” value was 7.4 days in data set [1] (3.25 mg/kg (calculated as active form: 2.5 mg/kg)) and 12.8 days in data set [1] (13 mg/kg (calculated as active form: 10 mg/kg)). Besides, the “protective effect on the systemic candidal infection (survival versus untreated group)” value in data set [1] (life/death until 14 days after infection) was “survived for a longer time as compared to the untreated group”. Also, the “in vitro activity with respect to the parent compound (Reference Example 1)” value in data set [2] was 1/100. The “plasma concentration of the active form after administration of the compound of Example 1” value in data set [3] was “increased quickly from immediately after administration”; in data set [4] it was “rose quickly”. Moreover, the “plasma concentration of the compound of Example 1” value in data set [3] is reported as “decreased quickly after administration”; in data set [4], “under the detection limit”.
Turning to `Nc1ncccc1-c1cc(Cc2ccc(COc3ccccn3)cc2)no1` [Parent compound, 3-(3-(4-(Pyridin-2-yloxymethyl)-benzyl)-isoxazol-5-yl)-pyridin-2-ylamine, reference compound], the solubility in the data set “physchem” (Britton-Robinson buffer, pH 5, aqueous buffer) was less than 100 µg/mL; in the data set “physchem” (Britton-Robinson buffer, pH 7, aqueous buffer), less than 100 µg/mL; in the data set “physchem” (Britton-Robinson buffer, pH 8, aqueous buffer), less than 100 µg/mL; in “physchem” (Britton-Robinson buffer, pH 9, aqueous buffer), less than 100 µg/mL.

By solubility is commonly meant the concentration that dissolves in the medium under given conditions. A low value points to little dissolved substance.

The values above are taken from patent US8513287B2, “Heterocyclic ring and phosphonoxymethyl group substituted pyridine derivatives and antifungal agent containing same” (Eisai R&D Management Co., Ltd., priority 2007, dated 2013).
